Experimental data taken from US20260305610A1, “TRIAZOLE COMPOUND, AND PREPARATION METHOD THEREFOR, HERBICIDAL COMPOSITION AND USE THEREOF” (QINGDAO KINGAGROOT CHEMICAL COMPOUND CO., LTD., priority 2023, published 2026).

Assays:
[1] = system: monocotyledonous and dicotyledonous weeds; assay: Pre-emergence test experiment (weeds); format: in vivo; parameters: key: 9: completely dead; 8: growth control rate is greater than or equal to 90% and less than 100%; 7: growth control rate is greater than or equal to 80% and less than 90%; 6: growth control rate is greater than or equal to 70% and less than 80%; growth control rate is greater than or equal to 50% and less than 70%; 4: growth control rate is greater than or equal to 30% and less than 50%; growth control rate is greater than or equal to 20% and less than 30%; growth control rate is greater than or equal to 10% and less than 20%; growth control rate is less than 10%; 0: no effect; conditions: 30 g a.i./ha
[2] = system: major crops; assay: Pre-emergence test experiment (crops); format: in vivo; parameters: key: 9: completely dead; 8: growth control rate is greater than or equal to 90% and less than 100%; 7: growth control rate is greater than or equal to 80% and less than 90%; 6: growth control rate is greater than or equal to 70% and less than 80%; growth control rate is greater than or equal to 50% and less than 70%; 4: growth control rate is greater than or equal to 30% and less than 50%; growth control rate is greater than or equal to 20% and less than 30%; growth control rate is greater than or equal to 10% and less than 20%; growth control rate is less than 10%; 0: no effect; conditions: 30 g a.i./ha

Compound | Pre-emergence activity level (growth control rate) on Descurainia sophia [1] | Pre-emergence activity level (growth control rate) on Digitaria sanguinalis [1] | Pre-emergence activity level (growth control rate) on Setaria viridis [1] | Pre-emergence plant damage level (growth control rate) on Corn [2] | Pre-emergence plant damage level (growth control rate) on Cotton [2] | Pre-emergence plant damage level (growth control rate) on Soybean [2] | Pre-emergence activity level (growth control rate) on Amaranthus retroflexus [1] | Pre-emergence activity level (growth control rate) on Solanum nigrum [1] | Pre-emergence activity level (growth control rate) on Veronica [1]
Cc1ccc(-n2cnc(C(F)(F)C(F)(F)F)n2)nc1Oc1cccc(OC(F)(F)F)c1 [Compound 65] | 9 | 9 | 9 | 0 | 0 | 0 | – | – | –
Cc1ccc(-n2cnc(C(F)(F)F)n2)nc1Oc1cncc(C(F)(F)F)c1 [Compound 11] | 9 | 9 | 9 | 0 | 0 | 0 | 9 | 9 | 9
CCc1ccc(-n2cnc(C(F)(F)F)n2)nc1Oc1cccc(OC(F)F)c1 [Compound 133] | 9 | 9 | 9 | 0 | 0 | 0 | 9 | 9 | 9
Cc1ccc(-n2cnc(C(F)(F)F)n2)nc1Oc1ccc(F)c(OC(F)F)c1 [Compound 75] | 9 | 9 | 9 | 0 | 0 | 0 | 9 | 9 | 9
COc1cc(Oc2ccc(F)c(C(F)(F)F)c2)nc(-n2cnc(C(F)(F)F)n2)c1 [Compound 76] | 9 | 9 | 8 (growth control rate is greater than or equal to 90% and less than 100%) | 0 | 0 | 0 | 9 | 9 | 9
CCc1ccc(-n2cnc(C(C)(F)F)n2)nc1Oc1cccc(C(F)(F)F)c1 [Compound 18] | 9 | 8 (growth control rate is greater than or equal to 90% and less than 100%) | 8 (growth control rate is greater than or equal to 90% and less than 100%) | 0 | 0 | 0 | 9 | 8 (growth control rate is greater than or equal to 90% and less than 100%) | 9
CCc1ccc(-n2cnc(C(F)(F)F)n2)nc1Oc1ccc(F)c(C(F)(F)F)c1 [Compound 135] | 9 | 9 | 9 | 0 | 0 | 0 | 9 | 9 | 9
Cc1ccc(-n2cnc(C(F)(F)F)n2)nc1Oc1ccc(F)c(C(F)(F)F)c1 [Compound 10] | 9 | 9 | 9 | 0 | 0 | 0 | 9 | 9 | 9
Cc1ccc(-n2cnc(C(F)(F)F)n2)nc1Oc1ccc(F)c(OC(F)(F)F)c1 [Compound 66] | 9 | 9 | 9 | 0 | 0 | 0 | 9 | 9 | 9
Cc1ccc(-n2cnc(C(F)F)n2)nc1Oc1cccc(OC(F)F)c1 [Compound 79] | 9 | 9 | 9 | 0 | 0 | 0 | 9 | 8 (growth control rate is greater than or equal to 90% and less than 100%) | 9
COc1cc(Oc2cccc(C(F)(F)F)c2)nc(-n2cnc(C(F)(F)F)n2)c1 [Compound 3] | 9 | 8 (growth control rate is greater than or equal to 90% and less than 100%) | 9 | 0 | 0 | 0 | 9 | 9 | 9
CCc1ccc(-n2cnc(C(F)(F)F)n2)nc1Oc1cncc(C(F)(F)F)c1 [Compound 17] | 9 | 9 | 9 | 0 | 0 | 0 | 9 | 9 | 9
COCc1ccc(-n2cnc(C(F)(F)F)n2)nc1Oc1cccc(OC(F)(F)F)c1 [Compound 145] | 9 | 9 | 9 | 0 | 0 | 0 | 9 | 9 | 9
Cc1ccc(-n2cnc(C(F)(F)C(F)(F)F)n2)nc1Oc1cncc(C(F)(F)F)c1 [Compound 15] | 9 | 8 (growth control rate is greater than or equal to 90% and less than 100%) | 9 | 0 | 0 | 0 | 9 | 8 (growth control rate is greater than or equal to 90% and less than 100%) | 9
N#Cc1cc(Oc2cccc(C(F)(F)F)c2)nc(-n2cnc(C(F)(F)F)n2)c1 [Compound 2] | 9 | 8 (growth control rate is greater than or equal to 90% and less than 100%) | 8 (growth control rate is greater than or equal to 90% and less than 100%) | 0 | 0 | 0 | 9 | 9 | 9
